What is called Kd is the equilibrium constant for the complex coming apart. Low readings indicate tighter binding, high ones weaker binding.

Consider four compounds from publication PMC4513132, “Oxidation of Monolignols by Members of the Berberine Bridge Enzyme Family Suggests a Role in Plant Cell Wall Metabolism” (The Journal of Biological Chemistry, 2015).

One experiment deals with T1, AtBBE-like 13 (Arabidopsis thaliana, UniProt Q93ZA3).
T1 construct: gene At1g30760; isolated from Komagataella pastoris cells (codon-optimised synthetic gene)
T1 sequence (Q93ZA3 31-534): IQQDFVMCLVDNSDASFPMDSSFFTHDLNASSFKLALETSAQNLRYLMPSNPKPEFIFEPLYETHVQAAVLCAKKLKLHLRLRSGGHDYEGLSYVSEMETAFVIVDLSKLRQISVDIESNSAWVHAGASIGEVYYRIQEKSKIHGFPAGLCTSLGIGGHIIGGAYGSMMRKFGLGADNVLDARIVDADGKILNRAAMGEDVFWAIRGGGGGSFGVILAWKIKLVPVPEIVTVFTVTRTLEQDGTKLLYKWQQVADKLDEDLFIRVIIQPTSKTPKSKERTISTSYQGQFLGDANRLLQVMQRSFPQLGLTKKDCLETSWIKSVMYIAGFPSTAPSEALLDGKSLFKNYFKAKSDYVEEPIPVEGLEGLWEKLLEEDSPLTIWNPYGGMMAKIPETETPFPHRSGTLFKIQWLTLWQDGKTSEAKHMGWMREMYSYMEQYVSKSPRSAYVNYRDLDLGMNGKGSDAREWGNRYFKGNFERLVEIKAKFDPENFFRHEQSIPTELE
As to the kind of experiment: stopped-flow reductive half-reaction, flavin absorbance at […] nm. Type of experiment: biochemical. The following applies: 50 mM potassium phosphate pH 7.0, 25 °C, anoxic.

In experiment [1] the target is T2, AtBBE-like 15 (Arabidopsis thaliana, UniProt O64743).
T2 construct: gene MEE23; secreted by Komagataella pastoris (codon-optimised synthetic gene); crystallised as 27-532; bicovalent FAD (His-115, Cys-179)
T2 sequence (O64743 27-532): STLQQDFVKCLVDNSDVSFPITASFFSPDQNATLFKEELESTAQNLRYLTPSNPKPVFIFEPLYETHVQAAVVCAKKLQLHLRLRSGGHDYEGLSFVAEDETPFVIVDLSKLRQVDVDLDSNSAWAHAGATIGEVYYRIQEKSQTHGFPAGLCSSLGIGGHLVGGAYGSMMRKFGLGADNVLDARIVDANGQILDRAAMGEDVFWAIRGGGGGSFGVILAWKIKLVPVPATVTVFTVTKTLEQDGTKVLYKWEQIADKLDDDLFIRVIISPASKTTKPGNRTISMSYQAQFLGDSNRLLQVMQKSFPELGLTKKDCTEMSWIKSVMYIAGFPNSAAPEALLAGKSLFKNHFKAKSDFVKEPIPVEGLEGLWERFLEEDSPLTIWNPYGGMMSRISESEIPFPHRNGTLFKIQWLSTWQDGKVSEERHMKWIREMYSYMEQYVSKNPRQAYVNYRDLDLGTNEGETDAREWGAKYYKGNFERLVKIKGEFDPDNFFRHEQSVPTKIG
The description is as above. In kind it is biochemical. The following applies: 50 mM potassium phosphate pH 7.0, 25 °C, anoxic.

Experiment [2] concerns the target T2, AtBBE-like 15. As to the kind of experiment: Thermofluor, SYPRO Orange. In kind it is binding. Conditions: 50 mM MES pH 7.0, 2 mg/ml ligand. (Differential scanning fluorimetry follows unfolding on heating by fluorescence.)
Experiment [3] has as its target T2, AtBBE-like 15. As to the kind of experiment: X-ray crystal structure, […] Å. Type of experiment: binding. The following applies: covalent (bicovalent: His-115 to 8α-methyl, Cys-179 to C6).

As to `OC/C=C/c1ccc(O)cc1` [p-coumaryl alcohol], the Kd on AtBBE-like 13 stood at 867 ± 123 µM; at AtBBE-like 15 [1], 700 ± 120 µM.
Take `OC[C@H]1OC(O)[C@H](O)[C@@H](O)[C@@H]1O` (stereo partly drawn) [D-glucose]: the “increase of the melting temperature” value at AtBBE-like 15 [2] is listed as “monosaccharides, such as D-glucose, had such a profound effect on the protein's thermal stability”.
Consider `Cc1cc2nc3c(=O)[nH]c(=O)nc-3n(C[C@H](O)[C@H](O)[C@H](O)COP(=O)(O)OP(=O)(O)OC[C@H]3O[C@@H](n4cnc5c(N)ncnc54)[C@H](O)[C@@H]3O)c2cc1C` [FAD], for which the “X-ray crystal structure, 2.1 Å” value on AtBBE-like 15 [3] is recorded as “The FAD cofactor is bicovalently linked to the peptide chain”.
In the case of `COc1cc(/C=C/CO)ccc1O[C@@H]1O[C@H](CO)[C@@H](O)[C@H](O)[C@H]1O` [coniferin], the results for the Kd on AtBBE-like 13 and on AtBBE-like 15 [1] were 1860 ± 624 µM and 660 ± 100 µM, respectively.
